In patent US20080293782A1, “1,1,3-Trioxo-1,2,5-Thiadiazolidines and Their Use as Ptp-Ases Inhibitors” (priority 2005, published 2008):

How the values were obtained:
human PTP-1B = target: T1, human PTP-1B (Homo sapiens, UniProt P18031); test: inhibitory activity (IC50) to human PTP-1B; format: biochemical
T1 construct: recombinant human PTP-1B[1-298] or PTP-1B[1-322]
T1 sequence (P18031 1-298 limits assumed): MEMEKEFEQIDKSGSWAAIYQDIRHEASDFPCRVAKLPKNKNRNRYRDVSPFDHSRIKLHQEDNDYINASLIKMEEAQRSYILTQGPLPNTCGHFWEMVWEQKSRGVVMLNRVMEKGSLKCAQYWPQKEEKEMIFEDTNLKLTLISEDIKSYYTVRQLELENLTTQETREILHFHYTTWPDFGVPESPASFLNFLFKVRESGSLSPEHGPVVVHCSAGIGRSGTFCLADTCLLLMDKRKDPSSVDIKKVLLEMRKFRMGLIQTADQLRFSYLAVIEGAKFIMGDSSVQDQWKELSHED
Protocol: For example, the PTP-1B inhibitory activity in vitro may be determined as follows:
Assessment of human PTP-1B (hPTP-1B) activity in the presence of various agents is determined by measuring the amount of inorganic phosphate released from a phosphopeptide substrate using a 96-well microtiter plate format. The assay (100 μL) is performed in an assay buffer comprised of 50 mM TRIS (pH 7.5), 50 mM NaCl, 3 mM DTT at ambient temperature. The assay is typically performed in the presence of 0.4% dimethyl sulfoxide (DMSO). However, concentrations as high as 10% are used with certain poorly soluble compounds. […] Inorganic phosphate, a product of the enzyme reaction, is quantitiated after 15 min as the green color resulting from complexing with the Malichite reagent and is determined as an A620 using a Molecular Devices (Sunnyvale, Calif.) SpectraMAX Plus spectrophotometer. […] Activity is defined as the net change in absorbance resulting from the activity of the uninhibited hPTP-1B[1-411] minus that of a tube with acid-inactivated hPTP-1B[1-411]. […]
Alternatively, the assessment of human PTP-1B activity in the presence of various agents may be determined by measuring the hydrolysis products of known competing substrates. […]

| melting point [°C] | IC50 (human PTP-1B) [nM] | SMILES |
| --- | --- | --- |
| 153 to 157 |  | O=C1CN(c2cc(Oc3ccccc3)ccc2O)S(=O)(=O)N1 [Example 14, 5-(2-Hydroxy-5-phenoxyphenyl)-1,1-dioxo-1,2,5-thiadiazolidin-3-one] |
|  | 80 | O=C1CN(c2cc(-c3cn[nH]c3)ccc2O)S(=O)(=O)N1 [Example No. 2-5, 5-[2-Hydroxy-5-(1H-pyrazol-4-yl)-phenyl]-1,1-dioxo-1,2,5-thiadiazolidin-3-one] |
|  | 86 | N#CCCCn1cc(-c2ccc(O)c(N3CC(=O)NS3(=O)=O)c2)cn1 [Example No. 13-7, 4-{4-[4-Hydroxy-3-(1,1,4-trioxo-1,2,5-thiadiazolidin-2-yl)-phenyl]-1H-pyrazol-1-yl}-butyronitrile] |
